≈ marks a conversion by molar mass, not a printed value. Where only a bound is given, the exact number is not on record here.

The source of these data is ChEMBL document CHEMBL1122575, “Dependence of beta-lactamase stability on substructures within beta-lactam antibiotics” (J Med Chem, 1984).

For data set [1], the system named is Escherichia coli. In words: Compound was evaluated for the antibacterial activity against Escherichia coli with strain NIHJ (beta-Lactamase-negative (LAC-)). In kind it is functional.
Data set [2] deals with Escherichia coli. In words: Compound was evaluated for the relative Vmax against Escherichia coli with strain 609 (beta-Lactamase-positive (LAC+)). The data set is classed as ADME, organism-based.
In data set [3] the test system is Escherichia coli. In words: Compound was evaluated for the antibacterial activity against Escherichia coli with strain 609 (beta-Lactamase-positive (LAC+)). In kind it is functional.
The subject of data set [4] is Escherichia coli. In words: Compound was evaluated for the antibacterial activity against Escherichia coli with strain NIHJ (beta-Lactamase-negative (LAC-). The data set is classed as functional.
Data set [5] concerns Escherichia coli. In words: Compound was evaluated for the antibacterial activity against Escherichia coli (RTEM+ organism). In kind it is functional.
Data set [6] concerns Staphylococcus aureus. In words: Percentage zonal reduction was evaluated against Staphylococcus aureus. The data set is classed as functional.
Data set [7] concerns Escherichia coli. In words: Percentage zonal reduction was evaluated against Escherichia coli. The data set is classed as functional.
A short description of data set [8]: Relative hydrolysis rate (RHR) was evaluated against RTEM enzyme. In kind it is ADME.
The nature of data set [9]: Relative hydrolysis rate (RHR) was evaluated against K1 enzyme. The data set is classed as ADME.
Data set [10] has as its system Enterobacter cloacae. In words: Compound was evaluated for the antibacterial activity against Enterobacter cloacae with the strains beta-Lactamase-positive (LAC+). The data set is classed as functional.
In data set [11] the test system is Escherichia coli. In words: Compound was evaluated for the antibacterial activity against Escherichia coli (RTEM+organism) at 10E6 colony forming units. In kind it is functional.
Data set [12] deals with Escherichia coli. In words: Relative hydrolysis rate (RHR) was evaluated against Escherichia coli with the strain RTEM. In kind it is ADME, organism-based.
The test system of another data set is Providencia rettgeri. In words: Compound was evaluated for the antibacterial activity against Providencia rettgeri with the strain beta-Lactamase-negative (LAC-). The data set is classed as functional.
The test system of data set [13] is Escherichia coli. In words: Compound was evaluated for the antibacterial activity against Escherichia coli with strain JC-S (beta-Lactamase-negative (LAC-)). The data set is classed as functional.
Data set [14] deals with Enterobacter cloacae. In words: Compound was evaluated for the antibacterial activity against Enterobacter cloacae with strain 233 (beta-Lactamase-positive (LAC+)). The data set is classed as functional.
Data set [15] has as its system Staphylococcus aureus. In words: Compound was evaluated for the antibacterial activity against Staphylococcus aureus with strain beta-Lactamase-negative (LAC-). The data set is classed as functional.
The test system of data set [16] is Staphylococcus aureus. In words: Compound was evaluated for the antibacterial activity against Staphylococcus aureus with strain beta-Lactamase-positive (LAC+). In kind it is functional.
Data set [17] relates to Staphylococcus aureus. In words: Relative hydrolysis rate (RHR) was evaluated against Staphylococcus aureus with strain PC1. The data set is classed as ADME, organism-based.
The test system of data set [18] is Escherichia coli. In words: Compound was evaluated for the antibacterial activity against Escherichia coli (RTEM-organism) at 10e4/10e6 cfu; 0.4/1.6. In kind it is functional.
In data set [19] the test system is Klebsiella aerogenes. In words: Compound was evaluated for the antibacterial activity against Klebsiella aerogenes with strain K1+ at 10e4/10e6 cfu; 100/>100. In kind it is functional.
Data set [20] concerns Escherichia coli. In words: Compound was evaluated for the antibacterial activity against Escherichia coli (RTEM+organism) at 10e4/10e6 cfu; 6.3/>100. In kind it is functional.
In data set [21] the test system is Klebsiella aerogenes. In words: Compound was evaluated for the antibacterial activity against Klebsiella aerogenes with strain K1- at 10e4/10e6 cfu; 0.4/1.6. The data set is classed as functional.
Data set [22] is described as follows: Compound was evaluated for the relative Vmax against RTEM enzyme. The data set is classed as ADME.
A short description of data set [23]: Compound was evaluated for the percentage remaining after 24 hr hydrolysis at a pH 7 at 37 degree Centigrade. The following applies: buffer.
Data set [24] has as its system Escherichia coli. In words: Compound was evaluated for the antibacterial activity against Escherichia coli with strain beta-Lactamase-negative (LAC-). The data set is classed as functional.
Data set [25] concerns Escherichia coli. In words: Compound was evaluated for the antibacterial activity against Escherichia coli (RTEM+ organism). In kind it is functional.

In the case of `NCCSC1=C(C(=O)O)N2C(=O)[C@H](CO)C2S1` (some centres undefined), the MIC amounted to 1.5 µg/mL (≈ 5.43 µM) in the data set with Escherichia coli [1] and 3.1 µg/mL (≈ 11.2 µM) in the data set on Escherichia coli [3]. The same compound came in with an RVmax in the data set with Escherichia coli [2] of less than 0.1.
For `CCO[C@@]1(NC(=O)CSCC#N)C(=O)N2C(C(=O)O)=C(CSc3nnnn3C)CSC21` (some centres undefined), the MIC in the data set with Escherichia coli [4] and against Escherichia coli [5] was 50 µg/mL (≈ 103 µM) each time.
Consider `CC1=C(C(=O)O)N2C(=O)[C@@H](NC(=O)[C@H](N)c3ccccc3)[C@H]2SC1` [CEPHALEXIN ANHYDROUS], for which the Zone reduction in the data set with Staphylococcus aureus [6] is on record as 48%; in the data set with Escherichia coli [7] it was 27%.
In the case of `CO/N=C(\C(=O)N[C@@H]1C(=O)N2C(C(=O)O)=C(COC(C)=O)CS[C@H]12)c1csc(N)n1` [CEFOTAXIME], the RHR in data set [8] and in data set [9] was 100 each time.
In the case of `Cn1nnnc1SCC1=C(C(=O)O)N2C(=O)[C@@H](NC(=O)Cc3csc(N)n3)C2SC1` (some centres undefined), in the data set with Enterobacter cloacae [10], the MIC was more than 100 µg/mL.
With `CO/N=C(\C(=O)N[C@@H]1C(=O)N2C(C(=O)O)=C(COC(C)=O)CSC12)c1csc(N)n1` (some centres undefined), the MIC against Escherichia coli [11] is 0.1 µg/mL (≈ 0.22 µM). In data set [8], this compound registered an RHR of 100.
In the data set with Enterobacter cloacae [10], `CO/N=C(/C(=O)N[C@@H]1C(=O)N2C(C(=O)O)=C(CSc3nnnn3C)CSC12)c1csc(N)n1` (some centres undefined) had an MIC of 1.6 µg/mL (≈ 3.13 µM).
In the case of `CO/N=C(\C(=O)NC1CN(S(=O)(=O)[O-])C1=O)c1csc(N)n1.[K+]` (centres undefined), in the data set on Escherichia coli [12], the RHR was less than 0.02. In the data set with Providencia rettgeri, the MIC is more than 100 µg/mL.
Take `CO[C@@]1(NC(=O)CSCC#N)C(=O)N2C(C(=O)[O-])=C(CSc3nnnn3C)CS[C@@H]21.[Na+]` [CEFMETAZOLE SODIUM]: the MIC against Escherichia coli [4] and against Escherichia coli [5] was 0.8 µg/mL each time.
In the case of `CC(=O)OCC1=C(C(=O)O)N2C(=O)[C@@H](NC(=O)/C(=N\OCC(=O)O)c3csc(N)n3)C2SC1` (some centres undefined), the RHR in data set [8] is on record as 2111; in data set [9], 101.
In the case of `Cn1nnnc1SCC1=C(C(=O)O)N2C(=O)[C@@H](NC(=O)Cc3ccc(O)cc3)C2OC1` (some centres undefined), the MIC in the data set with Escherichia coli [13] was 0.8 µg/mL (≈ 1.79 µM); against Enterobacter cloacae [14], more than 100 µg/mL; against Escherichia coli [5], more than 100 µg/mL.
For `C[C@H]1[C@H](NC(=O)CSc2cc(Cl)nc(Cl)c2)C(=O)N1OS(=O)(=O)[O-].[K+]`, the MIC with Staphylococcus aureus [15] worked out at 0.2 µg/mL; in the data set on Staphylococcus aureus [16], 6.3 µg/mL. In the data set with Staphylococcus aureus [17], this compound came in with an RHR of 2.6.
For `CC(O)[C@@H]1C(=O)N2C(C(=O)O)=C(SCCN)SC12` (some centres undefined), the values for the MIC with Escherichia coli [1] and with Escherichia coli [3] were 12.5 µg/mL (≈ 43 µM) and 25 µg/mL (≈ 86.1 µM), respectively. In the data set on Escherichia coli [2], this compound displayed an RVmax of less than 0.1.
In the case of `CO/N=C(/C(=O)N[C@H]1CN(S(=O)(=O)[O-])C1=O)c1csc(N)n1.[K+]`, the MIC with Escherichia coli [18] amounted to 0.4 µg/mL; in the data set on Klebsiella aerogenes [19], 100 µg/mL; against Escherichia coli [20] it was 6.3 µg/mL; in the data set with Klebsiella aerogenes [21], 0.4 µg/mL. In addition, the results for the RHR in data set [8] and in [9] were 12 and 106, respectively.
For the compound `CC(=O)N[C@H]1CN(S(=O)(=O)[O-])C1=O.[K+]`, the RVmax in data set [22] was 12. In data set [23], this compound yielded a fraction remaining at 24 h of more than 80%.
Regarding `CC(=O)NCCSC1=C(C(=O)O)N2C(=O)[C@H]([C@H](C)O)C2C1` (some centres undefined), the MIC against Escherichia coli [24] and in the data set on Escherichia coli [25] was 0.8 µg/mL (≈ 2.54 µM) throughout.
For `O=C(CSc1cc(Cl)nc(Cl)c1)N[C@H]1CN(OS(=O)(=O)[O-])C1=O.[K+]`, the MIC was found to be 0.1 µg/mL in the data set on Staphylococcus aureus [15] and 0.2 µg/mL in the data set with Staphylococcus aureus [16]. The compound further displayed an RHR with Staphylococcus aureus [17] of less than 0.5.
`Cn1nnnc1SCC1=C(C(=O)O)N2C(=O)[C@@H](NC(=O)C(C(=O)O)c3ccc(O)cc3)C2OC1` (some centres undefined): the results for the MIC against Escherichia coli [13], against Enterobacter cloacae [14] and against Escherichia coli [5] were 0.2 µg/mL (≈ 0.408 µM), 0.4 µg/mL (≈ 0.816 µM) and 50 µg/mL (≈ 102 µM), respectively.
For the compound `NCCSC1=C(C(=O)O)N2C(=O)CC2S1` (centres undefined), the MIC was 0.8 µg/mL (≈ 3.25 µM) against Escherichia coli [1] and 50 µg/mL (≈ 203 µM) with Escherichia coli [3]. The compound also came in with an RVmax in the data set with Escherichia coli [2] of 75.
Take `CC(=O)NCCSC1=C(C(=O)O)N2C(=O)[C@@H](C(C)O)C2C1` (some centres undefined): the MIC in the data set on Escherichia coli [24] was found to be 0.2 µg/mL (≈ 0.636 µM); in the data set with Escherichia coli [25], 25 µg/mL (≈ 79.5 µM).

Usually MIC stands for the smallest concentration in the dilution series that meets the test's criterion for growth inhibition. Read a low MIC as inhibition by little substance. By fraction remaining is commonly meant the share of the starting amount still present when the sample was taken.
